Reference: US12582116B2, “Agricultural formulations” (Dow Global Technologies LLC, priority 2020, dated 2026)

Key:
[1] = Mutual solubility of Formula 1 solvent and water (Example 1); format: physicochemical; settings: for solubility in water: solvent dissolved in water
Description: The solubility of Formula 1 Solvent A in water is measured to be 0.67 weight percent. The solubility of water in Formula 1 Solvent A is measured to be 1.44 weight percent.

[2] = Solubility of agricultural active ingredients in solvent by visual observation, Formula 1 Solvent A vs aromatic hydrocarbon (Example 2)
Description: The aromatic hydrocarbon solvent used is Aromatic 150 from Exxon Mobil Corporation (“Aromatic Hydrocarbon”). The agricultural active ingredients used are bifenthrin, tebuconazole, nitrapyrin, and dicamba acid.
(§1) The solubilities are determined by visual observation using the following method. Four milliliter vials are charged with agricultural active ingredient (10 to 50 wt %) and the specified solvent (90 to 50 wt %). The vials are capped and taped to seal with electric tape. The vials are secured in a plastic container and shaken on a laboratory shaker for 12 hours at ambient laboratory temperature and humidity. After 12 hours, each sample set is evaluated for solubility of the agricultural active ingredient solid. Complete solubilization of the agricultural active ingredient is determined to be achieved if a homogeneous clear solution is observed. The formulations made with Formula 1 Solvent A represent some embodiments of agricultural formulations of the present invention.

[3] = Solubility of agricultural active ingredients in solvent by visual observation, Formula 1 Solvent A vs N,N-dialkyl fatty amide (Example 3)
Description: The N,N-dialkyl fatty amide solvent used is HALLCOMID™ M-10’, which is a N,N-dimethyldecanamide from Stepan Company (“N,N-dialkyl Fatty Amide”). The agricultural active ingredients used are bifenthrin, tebuconazole, nitrapyrin, and dicamba acid.
as §1

[4] = in Aromatic Hydrocarbon (Aromatic 150, Exxon Mobil), shaken 12 hours at ambient laboratory temperature, visual observation, Table 2
[5] = in Formula 1 Solvent A (ethyl 2-furoate, Ethyl 408), shaken 12 hours at ambient laboratory temperature, visual observation, Table 2
[6] = in Formula 1 Solvent A (ethyl 2-furoate, Ethyl 408), shaken 12 hours at ambient laboratory temperature, visual observation, Table 3
[7] = in N,N-dialkyl Fatty Amide (HALLCOMID M-10, N,N-dimethyldecanamide), shaken 12 hours at ambient laboratory temperature, visual observation, Table 3

Compound | solubility in water [1] | solubility of water in Formula 1 Solvent A ([1]; water dissolved in the solvent) | Agricultural Active Ingredient Solubility [2, 4] | Agricultural Active Ingredient Solubility [2, 5] | Agricultural Active Ingredient Solubility [3, 6] | Agricultural Active Ingredient Solubility [3, 7] | Agricultural Active Ingredient Solubility [2] | Agricultural Active Ingredient Solubility [3]
CCOC(=O)c1ccco1 [Formula 1 Solvent A, ethyl 2-furoate] | 0.67 weight percent | 1.44 weight percent |  |  |  |  |  | 
COc1c(Cl)ccc(Cl)c1C(=O)O [Dicamba Acid, dicamba acid] |  |  | <10 wt % | 40 wt % | 40 wt % | <10 wt % |  | 
Cc1c(COC(=O)[C@@H]2[C@H](/C=C(\Cl)C(F)(F)F)C2(C)C)cccc1-c1ccccc1 (racemic) [Bifenthrin, bifenthrin] |  |  | 40 wt % | 30 wt % | 30 wt % | 30 wt % |  | 
Clc1cccc(C(Cl)(Cl)Cl)n1 [Nitrapyrin, nitrapyrin] |  |  |  |  |  |  | >50 wt % | >50 wt %
5-methyl-2-furoate | 0.67 weight percent |  |  |  |  |  |  | 
CC(C)(C)C(O)(CCc1ccc(Cl)cc1)Cn1cncn1 (centres unmarked) [Tebuconazole, tebuconazole] |  |  | <10 wt % |  | 20 wt % | 30 wt % | 20 wt % | 
